In PubChem BioAssay (NCI):
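Exposure lasted 48 hours, with cells grown in 96-well plates and compounds tested at five concentrations. GI50: concentration for 50% inhibition of growth. The concentration for full growth arrest is given as TGI.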

Key:
Experiment in all cases: NCI-60 cell line screen, 48 h
[1] = test system: NCI-H460 lung
[2] = test system: SR leukemia
[3] = test system: BT-549 breast
[4] = test system: A498 renal
[5] = test system: LOX IMVI melanoma
[6] = test system: SK-MEL-28 melanoma
[7] = test system: COLO 205 colon
[8] = test system: SK-OV-3 ovarian
[9] = test system: KM12 colon
[10] = test system: SF-268 CNS
[11] = test system: M14 melanoma
[12] = test system: HOP-62 NSCLC
[13] = test system: HT29 colon
[14] = test system: NCI-H226 lung
[15] = test system: 786-0 renal
[16] = test system: NCI-H23 lung
[17] = test system: HCC-2998 colon
[18] = test system: UACC-257 melanoma
[19] = test system: UO-31 renal
[20] = test system: OVCAR-5 ovarian
[21] = test system: A549 NSCLC
[22] = test system: MALME-3M melanoma
[23] = test system: MCF7 breast
[24] = test system: RPMI-8226 leukemia
[25] = test system: K-562 leukemia
[26] = test system: SK-MEL-5 melanoma
[27] = test system: HCT-116 colon
[28] = test system: SK-MEL-2 melanoma
[29] = test system: HS 578T breast
[30] = test system: ACHN renal
[31] = test system: CAKI-1 renal
[32] = test system: SNB-19 CNS
[33] = test system: UACC-62 melanoma
[34] = test system: SW-620 colon
[35] = test system: SF-539 CNS
[36] = test system: RXF 393 renal
[37] = test system: TK-10 renal
[38] = test system: HCT-15 colon
[39] = test system: U251 CNS
[40] = test system: NCI/ADR-RES ovarian
[41] = test system: MDA-MB-435
[42] = test system: HL-60(TB) leukemia
[43] = test system: DU-145 prostate
[44] = test system: HOP-92 NSCLC
[45] = test system: T-47D breast
[46] = test system: MDA-MB-231 breast
[47] = test system: OVCAR-8 ovarian
[48] = test system: SF-295 CNS
[49] = test system: SN12C renal
[50] = test system: MOLT-4 leukemia
[51] = test system: NCI-H522 lung
[52] = test system: SNB-75 CNS
[53] = test system: PC-3 prostate
[54] = test system: CCRF-CEM leukemia
[55] = test system: EKVX NSCLC
[56] = test system: OVCAR-4 ovarian
[57] = test system: IGROV1 ovarian
[58] = test system: OVCAR-3 ovarian

## COc1ccc(-c2cn[nH]c2-c2cc(OC)c(OC)c(OC)c2)cc1OCc1ccccc1
[1]
  GI50: 3.35 µM
  TGI: 12.2 µM
[2]
  GI50: 2.85 µM
  TGI: 9.38 µM
[3]
  GI50: 5.33 µM
  TGI: 25.8 µM
[4]
  GI50: 2.08 µM
  TGI: 5.51 µM
[5]
  GI50: 3.44 µM
  TGI: 13.6 µM
[6]
  GI50: 4.86 µM
  TGI: 18.3 µM
[7]
  GI50: 4.58 µM
  TGI: 18.1 µM
[8]
  GI50: 3.74 µM
  TGI: 23.8 µM
[9]
  GI50: 3.3 µM
  TGI: 12 µM
[10]
  GI50: 4.6 µM
  TGI: 27 µM
[11]
  GI50: 2.63 µM
  TGI: 8.77 µM
[12]
  GI50: 3.13 µM
  TGI: 14.1 µM
[13]
  GI50: 3.61 µM
  TGI: 15.8 µM
[14]
  GI50: 3.57 µM
  TGI: 20.5 µM
[15]
  GI50: 2.96 µM
  TGI: 16.2 µM
[16]
  GI50: 4.21 µM
  TGI: 31.7 µM
[17]
  GI50: 3.45 µM
  TGI: 12.1 µM
[18]
  GI50: 6.38 µM
  TGI: 24.3 µM
[19]
  GI50: 3.21 µM
  TGI: 15.2 µM
[20]
  GI50: 3.76 µM
  TGI: 28 µM
[21]
  GI50: 3.56 µM
  TGI: 51.6 µM
[22]
  GI50: 4.28 µM
  TGI: 26.2 µM
[23]
  GI50: 3.65 µM
  TGI: 17.1 µM
[24]
  GI50: 2.22 µM
  TGI: 9.28 µM
[25]
  GI50: 3.18 µM
  TGI: > 100 µM
[26]
  GI50: 2.29 µM
  TGI: 5.89 µM
[27]
  GI50: 3.13 µM
  TGI: 11.2 µM
[28]
  GI50: 4.27 µM
  TGI: 16.7 µM
[29]
  GI50: 2.23 µM
  TGI: 8.86 µM
[30]
  GI50: 3.53 µM
  TGI: 35.2 µM
[31]
  GI50: 3.58 µM
  TGI: 47.1 µM
[32]
  GI50: 4.23 µM
  TGI: 24.7 µM
[33]
  GI50: 3.02 µM
  TGI: 13.3 µM
[34]
  GI50: 4.37 µM
  TGI: 30.2 µM
[35]
  GI50: 2.19 µM
  TGI: 5.23 µM
[36]
  GI50: 1.95 µM
  TGI: 4.85 µM
[37]
  GI50: 4.53 µM
  TGI: 49 µM
[38]
  GI50: 3.07 µM
  TGI: 13.2 µM
[39]
  GI50: 3.24 µM
  TGI: 11.8 µM
[40]
  GI50: 2.52 µM
  TGI: 7.43 µM
[41]
  GI50: 1.95 µM
  TGI: 3.91 µM
[42]
  GI50: 2.36 µM
  TGI: 5.44 µM
[43]
  GI50: 3.94 µM
  TGI: 21.6 µM
[44]
  GI50: 2.01 µM
  TGI: 15.3 µM
[45]
  GI50: 2.83 µM
  TGI: 19.1 µM
[46]
  GI50: 3.25 µM
  TGI: 16.5 µM
[47]
  GI50: 3.72 µM
  TGI: 30.3 µM
[48]
  GI50: 3.01 µM
  TGI: 9.02 µM
[49]
  GI50: 4.41 µM
  TGI: 19.4 µM
[50]
  GI50: 3.1 µM
  TGI: 11 µM
[51]
  GI50: 2 µM
  TGI: 9.31 µM
[52]
  GI50: 2.91 µM
  TGI: 9.23 µM
[53]
  GI50: 3.24 µM
  TGI: 19.1 µM
[54]
  GI50: 3.49 µM
  TGI: 26.5 µM
[55]
  GI50: 4.48 µM
  TGI: 47.2 µM
[56]
  GI50: 4.97 µM
  TGI: 59.1 µM
[57]
  GI50: 3.52 µM
  TGI: 18.7 µM
[58]
  GI50: 2.47 µM
  TGI: 5.44 µM
